We go through 13 molecules from patent US20260070945A1, “MACROCYCLIC IMMUNOMODULATORS” (Bristol-Myers Squibb Company, priority 2022, published 2026).

Structures are written as SMILES. pIC50: −log10 of the molar value. Where a SMILES comes first, the peptide text is derived from it. Bridges are numbered along the chain shown (N, C = ends). [ ]: non-standard residue; d: D form. The star is where a group is joined. ξ: configuration not given here. Phe(4-COOH) = N[C@@H](Cc1ccc(C(=O)O)cc1)C(=O)O; Bip = N[C@@H](Cc1ccc(-c2ccccc2)cc1)C(=O)O; hArg = N=C(N)NCCCC[C@H](N)C(=O)O; 4Pal = N[C@@H](Cc1ccncc1)C(=O)O; Cha = N[C@@H](CC1CCCCC1)C(=O)O; Ile(3ξ) = CCC(C)[C@H](N)C(=O)O; Thr(3ξ) = CC(O)[C@H](N)C(=O)O; dOrn = NCCC[C@@H](N)C(=O)O; Carboxymethyl = O=C(O)C*; NMeA = CN[C@@H](C)C(=O)O; Orn = NCCC[C@H](N)C(=O)O; Aun = NCCCCCCCCCCC(=O)O; Dab = NCC[C@H](N)C(=O)O; Dap = NC[C@H](N)C(=O)O; AEEA = NCCOCCOCC(=O)O

T1 sequence (Q15116 25-288): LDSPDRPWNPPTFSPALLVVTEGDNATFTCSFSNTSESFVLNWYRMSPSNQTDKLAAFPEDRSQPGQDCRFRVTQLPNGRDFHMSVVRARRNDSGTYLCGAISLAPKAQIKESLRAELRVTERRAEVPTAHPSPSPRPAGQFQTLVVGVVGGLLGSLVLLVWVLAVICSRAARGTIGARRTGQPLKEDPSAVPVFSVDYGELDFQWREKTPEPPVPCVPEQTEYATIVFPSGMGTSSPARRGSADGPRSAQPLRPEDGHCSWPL

This assay addresses T1, PD-1/PD-L1 interaction (PE-labeled human PD-L1-Ig binding to Jurkat cell line over-expressing human PD-1) (Homo sapiens, UniProt Q15116).
T1 construct: expressed in transfected cells; host or cells: Jurkat
The assay is described as follows: Jurkat-PD-1 Cell Binding High-Content Screening Assay (CBA). To be noted: Jurkat-hPD-1 cells, PE-labeled PD-L1-Ig 20 nM final; read-out: Jurkat HPD1 PDL1 IC50. In a few lines: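 Cells 8×10^3/well, DMEM + 10% FCS; cpd 2 h, 37 °C; PE–PD-L1-Ig 20 nM final, 1 h; PFA fix + Hoechst 33342, 3× dPBS wash; high-content imager.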
With `CCC(C)[C@@H]1NC(=O)[C@H](Cc2ccc(-c3ccccc3)cc2)NC(=O)[C@H](CC(C)C)NC(=O)[C@H](Cc2c[nH]c3ccccc23)NC(=O)[C@H](CC(=O)O)NC(=O)[C@H](Cc2ccc(O)cc2)NC(=O)[C@H](Cc2ccncc2)NC(=O)CSC[C@@H](C(=O)N[C@@H](CCCN)C(=O)NCCOCCOCC(=O)NCCCCCCCCCCC(=O)O)NC(=O)[C@H](CO)NC(=O)[C@H](C(C)C)NC(=O)[C@H](CC2CCCCC2)NC(=O)[C@H](CCN)NC(=O)[C@@H](CC(C)C)NC(=O)[C@H](C)N(C)C1=O` (stereo partly drawn) [Example 2073] ({CH2CO}-[4Pal]YDWL[Bip][Ile(3ξ)][NMeA][dL][Dab][Cha]VSC[Orn][AEEA][Aun]-OH; thioether N-14), the pIC50 was 7.36.
The figure for `CCC(C)[C@@H]1NC(=O)[C@H](Cc2ccc(-c3ccccc3)cc2)NC(=O)[C@H](CC(C)C)NC(=O)[C@H](Cc2c[nH]c3ccccc23)NC(=O)[C@H](CC(=O)O)NC(=O)[C@H](Cc2ccc(C(=O)O)cc2)NC(=O)[C@H](Cc2ccc(OCC(=O)O)cc2)NC(=O)CSC[C@@H](C(=O)NCCOCCOCC(=O)N[C@@H](CN)C(=O)NCCCCCCCCCCC(=O)O)NC(=O)[C@H](CO)NC(=O)[C@H](C(C)C)NC(=O)[C@H](CC2CCCCC2)NC(=O)[C@H](CCN)NC(=O)[C@@H](CC(C)C)NC(=O)[C@H](C)N(C)C1=O` (stereo partly drawn) [Example 2074] ({CH2CO}-Y(Carboxymethyl)[Phe(4-COOH)]DWL[Bip][Ile(3ξ)][NMeA][dL][Dab][Cha]VSC[AEEA][Dap][Aun]-OH; thioether N-14) is 8.00; for `CCC(C)[C@@H]1NC(=O)[C@H](Cc2ccc(-c3ccccc3)cc2)NC(=O)[C@H](CC(C)C)NC(=O)[C@H](Cc2c[nH]c3ccccc23)NC(=O)[C@H](CC(=O)O)NC(=O)[C@H](Cc2ccc(C(=O)O)cc2)NC(=O)[C@H](Cc2ccc(OCC(=O)O)cc2)NC(=O)CSC[C@@H](C(=O)N[C@@H](CC(N)=O)C(=O)NCCOCCOCC(=O)N[C@@H](CN)C(=O)NCCCCCCCCCCC(=O)O)NC(=O)[C@H](CO)NC(=O)[C@H](C(C)C)NC(=O)[C@H](CC2CCCCC2)NC(=O)[C@H](CCN)NC(=O)[C@@H](CC(C)C)NC(=O)[C@H](C)N(C)C1=O` (stereo partly drawn) [Example 2075] ({CH2CO}-Y(Carboxymethyl)[Phe(4-COOH)]DWL[Bip][Ile(3ξ)][NMeA][dL][Dab][Cha]VSCN[AEEA][Dap][Aun]-OH; thioether N-14) it is 7.81; for `CCC(C)[C@@H]1NC(=O)[C@H](Cc2ccc(-c3ccccc3)cc2)NC(=O)[C@H](CC(C)C)NC(=O)[C@H](Cc2c[nH]c3ccccc23)NC(=O)[C@H](CC(=O)O)NC(=O)[C@H](Cc2ccc(O)cc2)NC(=O)[C@H](CC(N)=O)NC(=O)CSC[C@@H](C(=O)N[C@@H](C)C(=O)NCCOCCOCC(=O)N[C@@H](CCCN)C(=O)NCCCCCCCCCCC(=O)O)NC(=O)[C@H](CO)NC(=O)[C@H](C(C)C)NC(=O)[C@H](CC2CCCCC2)NC(=O)[C@H](CC(N)=O)NC(=O)[C@@H](CC(C)C)NC(=O)[C@H](C)N(C)C1=O` (stereo partly drawn) [Example 2076] ({CH2CO}-NYDWL[Bip][Ile(3ξ)][NMeA][dL]N[Cha]VSCA[AEEA][Orn][Aun]-OH; thioether N-14) it is 7.27.
For `CCC(C)[C@@H]1NC(=O)[C@H](Cc2ccc(-c3ccccc3)cc2)NC(=O)[C@H](C(C)C)NC(=O)[C@H](Cc2c[nH]c3ccccc23)NC(=O)[C@H](CC(=O)O)NC(=O)[C@H](Cc2ccc(O)cc2)NC(=O)[C@H](Cc2ccncc2)NC(=O)CSC[C@@H](C(=O)N[C@@H](C)C(=O)NCCOCCOCC(=O)N[C@@H](CCCN)C(=O)NCCCCCCCCCCC(=O)O)NC(=O)[C@H](C(C)O)NC(=O)[C@H](C(C)C)NC(=O)[C@H](CC2CCCCC2)NC(=O)[C@H](CCN)NC(=O)[C@@H](CC(C)C)NC(=O)[C@H](C)N(C)C1=O` (stereo partly drawn) [Example 2077] ({CH2CO}-[4Pal]YDWV[Bip][Ile(3ξ)][NMeA][dL][Dab][Cha]V[Thr(3ξ)]CA[AEEA][Orn][Aun]-OH; thioether N-14), the pIC50 is 7.85.
As for `CCC(C)[C@@H]1NC(=O)[C@H](Cc2ccc(-c3ccccc3)cc2)NC(=O)[C@H](C(C)C)NC(=O)[C@H](Cc2c[nH]c3ccccc23)NC(=O)[C@H](CC(=O)O)NC(=O)[C@H](Cc2ccc(O)cc2)NC(=O)[C@H](Cc2ccncc2)NC(=O)CSC[C@@H](C(=O)N[C@@H](CC(N)=O)C(=O)NCCOCCOCC(=O)N[C@@H](CCCN)C(=O)NCCCCCCCCCCC(=O)O)NC(=O)[C@H](CO)NC(=O)[C@H](C(C)C)NC(=O)[C@H](CC2CCCCC2)NC(=O)[C@H](CCN)NC(=O)[C@@H](CC(C)C)NC(=O)[C@H](C)N(C)C1=O` (stereo partly drawn) [Example 2078] ({CH2CO}-[4Pal]YDWV[Bip][Ile(3ξ)][NMeA][dL][Dab][Cha]VSCN[AEEA][Orn][Aun]-OH; thioether N-14), the pIC50 was 7.91.
For the molecule `CCC(C)[C@@H]1NC(=O)[C@H](Cc2ccc(-c3ccccc3)cc2)NC(=O)[C@H](CC(C)C)NC(=O)[C@H](Cc2c[nH]c3ccccc23)NC(=O)[C@H](CC(=O)O)NC(=O)[C@H](Cc2ccc(C(=O)O)cc2)NC(=O)[C@H](Cc2ccc(OCC(=O)O)cc2)NC(=O)CSC[C@@H](C(=O)N[C@@H](CC(N)=O)C(=O)NCCOCCOCC(=O)N[C@@H](CCN)C(=O)NCCCCCCCCCCC(=O)O)NC(=O)[C@H](CO)NC(=O)[C@H](C(C)C)NC(=O)[C@H](CC2CCCCC2)NC(=O)[C@H](CCN)NC(=O)[C@@H](CC(C)C)NC(=O)[C@H](C)N(C)C1=O` (stereo partly drawn) [Example 2079] ({CH2CO}-Y(Carboxymethyl)[Phe(4-COOH)]DWL[Bip][Ile(3ξ)][NMeA][dL][Dab][Cha]VSCN[AEEA][Dab][Aun]-OH; thioether N-14), the pIC50 was 7.95.
On to `CCC(C)[C@@H]1NC(=O)[C@H](CC(C)C)NC(=O)[C@H](CCN)NC(=O)[C@@H](CC(C)C)NC(=O)[C@H](C)N(C)C(=O)[C@H](C(C)CC)NC(=O)[C@H](Cc2ccc(-c3ccccc3)cc2)NC(=O)[C@H](C(C)CC)NC(=O)[C@H](Cc2c[nH]c3ccccc23)NC(=O)[C@H](CC(=O)O)NC(=O)[C@H](Cc2ccc(OCC(=O)O)cc2)NC(=O)[C@H](C(C)O)NC(=O)CSC[C@@H](C(=O)N[C@H](CC(N)=O)C(=O)NCCOCCOCC(=O)NCCCCCCCCCCC(=O)O)NC(=O)[C@H](CO)NC1=O` (stereo partly drawn) [Example 2080] ({CH2CO}-[Thr(3ξ)]Y(Carboxymethyl)DW[Ile(3ξ)][Bip][Ile(3ξ)][NMeA][dL][Dab]L[Ile(3ξ)]SC[dN][AEEA][Aun]-OH; thioether N-14), for which the negative logarithm of the IC50 (pIC50) is 6.96.
With `CCC(C)[C@@H]1NC(=O)[C@H](CC(C)C)NC(=O)[C@H](CCN)NC(=O)[C@@H](CC(C)C)NC(=O)[C@H](C)N(C)C(=O)[C@H](C(C)CC)NC(=O)[C@H](Cc2ccc(-c3ccccc3)cc2)NC(=O)[C@H](C(C)CC)NC(=O)[C@H](Cc2c[nH]c3ccccc23)NC(=O)[C@H](CC(=O)O)NC(=O)[C@H](Cc2ccc(OCC(=O)O)cc2)NC(=O)[C@H](C(C)O)NC(=O)CSC[C@@H](C(=O)N[C@@H](CN)C(=O)NCCOCCOCC(=O)NCCCCCCCCCCC(=O)O)NC(=O)[C@H](CO)NC1=O` (stereo partly drawn) [Example 2081] ({CH2CO}-[Thr(3ξ)]Y(Carboxymethyl)DW[Ile(3ξ)][Bip][Ile(3ξ)][NMeA][dL][Dab]L[Ile(3ξ)]SC[Dap][AEEA][Aun]-OH; thioether N-14), the pIC50 was 6.69.
With `CCC(C)[C@@H]1NC(=O)[C@H](CC(C)C)NC(=O)[C@H](CCN)NC(=O)[C@@H](CC(C)C)NC(=O)[C@H](C)N(C)C(=O)[C@H](C(C)CC)NC(=O)[C@H](Cc2ccc(-c3ccccc3)cc2)NC(=O)[C@H](C(C)CC)NC(=O)[C@H](Cc2c[nH]c3ccccc23)NC(=O)[C@H](CC(=O)O)NC(=O)[C@H](Cc2ccc(OCC(=O)O)cc2)NC(=O)[C@H](C(C)O)NC(=O)CSC[C@@H](C(=O)N[C@H](CC(N)=O)C(=O)NCCOCCOCC(=O)N[C@@H](CCCN)C(=O)NCCCCCCCCCCC(=O)O)NC(=O)[C@H](CO)NC1=O` (stereo partly drawn) [Example 2082] ({CH2CO}-[Thr(3ξ)]Y(Carboxymethyl)DW[Ile(3ξ)][Bip][Ile(3ξ)][NMeA][dL][Dab]L[Ile(3ξ)]SC[dN][AEEA][Orn][Aun]-OH; thioether N-14) the figure was 6.77; with `CC(C)C[C@H]1NC(=O)[C@H](C)N(C)C(=O)[C@H](C(C)C)NC(=O)[C@H](Cc2ccc(-c3ccccc3)cc2)NC(=O)[C@H](C(C)C)NC(=O)[C@H](Cc2c[nH]c3ccccc23)NC(=O)[C@H](CC(=O)O)NC(=O)[C@H](Cc2ccc(OCC(=O)O)cc2)NC(=O)[C@H](CCCCNC(=N)N)NC(=O)CSC[C@@H](C(=O)NCC(=O)NCCOCCOCC(=O)N[C@@H](CCCN)C(=O)NCCCCCCCCCCC(=O)O)NC(=O)[C@H](CO)NC(=O)[C@H](C(C)C)NC(=O)[C@H](CC2CCCCC2)NC(=O)[C@H](CCN)NC1=O` [Example 2084] ({CH2CO}-[hArg]Y(Carboxymethyl)DWV[Bip]V[NMeA][dL][Dab][Cha]VSCG[AEEA][Orn][Aun]-OH; thioether N-14), 8.02.
Turning to `CC(C)C[C@H]1NC(=O)[C@H](C)N(C)C(=O)[C@H](C(C)C)NC(=O)[C@H](Cc2ccc(-c3ccccc3)cc2)NC(=O)[C@H](C(C)C)NC(=O)[C@H](Cc2c[nH]c3ccccc23)NC(=O)[C@H](CC(=O)O)NC(=O)[C@H](Cc2ccc(OCC(=O)O)cc2)NC(=O)[C@H](CN)NC(=O)CSC[C@@H](C(=O)NCC(=O)NCCOCCOCC(=O)N[C@@H](CCCCN)C(=O)NCCCCCCCCCCC(=O)O)NC(=O)[C@H](CO)NC(=O)[C@H](C(C)C)NC(=O)[C@H](CC2CCCCC2)NC(=O)[C@H](CCN)NC1=O` [Example 2085] ({CH2CO}-[Dap]Y(Carboxymethyl)DWV[Bip]V[NMeA][dL][Dab][Cha]VSCG[AEEA]K[Aun]-OH; thioether N-14), the pIC50 is 8.01.
With `CCC(C)[C@@H]1NC(=O)[C@H](Cc2ccc(-c3ccccc3)cc2)NC(=O)[C@H](CC(C)C)NC(=O)[C@H](Cc2c[nH]c3ccccc23)NC(=O)[C@H](CC(=O)O)NC(=O)[C@H](Cc2ccc(O)cc2)NC(=O)[C@H](Cc2ccncc2)NC(=O)CSC[C@@H](C(=O)N[C@H](CCCN)C(=O)NCCOCCOCC(=O)NCCCCCCCCCCC(=O)O)NC(=O)[C@H](CO)NC(=O)[C@H](C(C)C)NC(=O)[C@H](CC2CCCCC2)NC(=O)[C@H](CCN)NC(=O)[C@@H](CC(C)C)NC(=O)[C@H](C)N(C)C1=O` (stereo partly drawn) [Example 2086] ({CH2CO}-[4Pal]YDWL[Bip][Ile(3ξ)][NMeA][dL][Dab][Cha]VSC[dOrn][AEEA][Aun]-OH; thioether N-14) the figure was 7.73.
